Results: patent publication US20230027361A1, “METTL3 MODULATORS” (priority 2019, published 2023)
Read-outs that look alike come from different tables or passages of the source.

Columns and labels:
[1] = target: PRMT5-MEP50 (Homo sapiens, UniProt O14744); experiment: PRMT5 Assay (PRMT5 biochemical assay)
Summary of the method: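 Radiometric methyltransferase read-out: after 60 min reaction, excess unlabelled SAM (15 μM) stops turnover and biotinylated H4 peptide (100 nM) carrying 3H-methyl from 250 nM 3H-SAM is captured on streptavidin flashplates (2 h, 25° C) for scintillation counting. Enzyme, 2.5 nM PRMT5-MEP50, was preincubated 5 min with compound in pH 8.0 Tris buffer with DTT and Tween.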

[2] = tested on: m6A in cellular mRNA of MOLM-13 cells; experiment: m6A-mRNA LC-MS/MS Assay (m6A cellular assay); assay type: cell-based; details: Homo sapiens, MOLM-13, read-out: m^6A IC50
Method: Cells were harvested by centrifugation followed by mRNA extraction using DIRECT Dynabeads mRNA DIRECT kit (Life Technologies). mRNA was quantified on NanoDrop spectrophotometer (Thermo Fisher Scientific) and digested into single nucleosides using Nucleoside Digestion Mix (New England Biolabs). […] Quantification is performed in comparison with the standard curve, obtained from pure nucleoside standards (Selleck Chemicals) running with the same batch of samples. Percentage m^6A in cellular mRNA is calculated as 100*(m^6A/A).

[3] = tested on: MOLM-13 cells; experiment: MOLM-13 48 Hour Cell Proliferation Assay; assay type: cell-based; details: Homo sapiens
Method: MOLM-13 (DSMZ) cells were seeded at 1000 cells per well in a volume of 44 μL in a Falcon 384-well tissue culture treated clear bottom microplate in RPMI 1640 media containing 10% fetal bovine serum using a Multidrop Combi (ThermoFisher Scientific). Cells were incubated overnight at 37° C. in a humidified tissue culture incubator. The Mosquito® HTS Liquid Handler was used to make a compound/media intermediate plate by aliquoting 1 μL of compound from the initial compound dilution plate (concentrations ranging from 10.0 mM to 38.0 nM in 100% DMSO) into a V bottom 384-well screen matrix plate containing 49 μL of media containing the appropriate serum (50-fold dilution, 2% DMSO). The Apricot liquid handling system was used to transfer 6.2 μL compounds from the intermediate plate into the Falcon 384-well tissue culture plate containing 44 μL cells (10-point, 4-fold dilution spanning concentrations 25.0 μM to […], 0.25% DMSO final), and placed in a humidified tissue culture incubator at 37° C. After 48 hours, 25 μL of Cell Titer-Glo reagent (Promega) was added to each well using a Multidrop Combi. The plate was protected from light and placed on an IKA plate shaker for at 300 rpm for 10 minutes at room temperature. The plate was read on an EnVision plate reader (Perkin Elmer) using the Ultra Sensitive Luminescence protocol. Data analysis was performed by normalizing the raw luminescence units to an average of the positive control values for staurosporine (100% cell death) and the negative control values for DMSO (0% cell death). An IC50 was calculated using a 4-parameter logistic nonlinear regression model in GraphPad Prism.

[4] = target: METTL1/WDR4 (Homo sapiens, UniProt Q9UBP6); experiment: METTL1 Assay (METTL1 biochemical assay)
Summary of the method: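 Radiometric methyltransfer by METTL1/WDR4 (6.25 nM f.c., 5 min preincubation) at ambient temperature in HEPES pH 7.5, KCl, MgCl2, DTT; started with 25 nM 3′-biotinylated RNA and 60 nM 3H-SAM, run 20 min, quenched with 15 μM cold SAM. Product captured on streptavidin flashplates (2 h, 25° C), counted by scintillation.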

[5] = target: METTL3/METTL14 (Homo sapiens, UniProt Q86U44); experiment: METTL3-14 Standard Enzyme Assay (METTL3 biochemical assay)
Summary of the method: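 Tritium transfer from ³H-SAM (100 nM) to biotinylated RNA (100 nM) captured on streptavidin flashplates and counted by scintillation. Enzyme complex (2.5 nM) with compound, 5 min preincubation, 30 min reaction at ambient temperature, HEPES pH 7.5 buffer, stopped by excess unlabeled SAM.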

[6] = tested on: MOLM-13 cells; experiment: MOLM-13 96 Hour Cell Proliferation Assay; assay type: cell-based; details: Homo sapiens
Summary of the method: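 MOLM-13 cells in RPMI 1640 with 10% FBS were plated overnight at 37 °C, then exposed to compound dilutions at 0.25% DMSO final for 96 h. Viability was read by CellTiter-Glo luminescence, normalised to staurosporine (100% death) and DMSO (0% death) controls, and IC50 was fitted by 4-parameter logistic regression.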

[7] = PRMT5 biochemical assay, read-out: PRMT5 IC50
[8] = METTL3 biochemical assay, read-out: METTL3 IC50
[9] = read-out: METTL1 IC50, METTL1 biochemical assay

Chain of METTL3/METTL14 (Q86U44 whole entry, species assumed): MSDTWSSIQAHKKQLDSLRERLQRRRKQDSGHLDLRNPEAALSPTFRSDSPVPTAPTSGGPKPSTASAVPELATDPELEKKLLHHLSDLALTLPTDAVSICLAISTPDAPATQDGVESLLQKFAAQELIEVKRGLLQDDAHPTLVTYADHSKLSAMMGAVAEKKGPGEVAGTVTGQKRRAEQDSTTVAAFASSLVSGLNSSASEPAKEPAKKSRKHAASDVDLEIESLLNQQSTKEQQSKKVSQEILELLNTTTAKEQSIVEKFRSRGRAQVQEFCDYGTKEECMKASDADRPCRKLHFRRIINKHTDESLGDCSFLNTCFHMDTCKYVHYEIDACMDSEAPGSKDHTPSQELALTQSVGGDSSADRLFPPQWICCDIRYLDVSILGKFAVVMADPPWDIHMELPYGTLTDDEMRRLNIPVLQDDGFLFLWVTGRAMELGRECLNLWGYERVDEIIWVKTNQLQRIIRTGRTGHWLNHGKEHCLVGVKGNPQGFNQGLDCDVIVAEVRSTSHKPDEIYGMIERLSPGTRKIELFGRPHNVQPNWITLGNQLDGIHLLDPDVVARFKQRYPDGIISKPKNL
Chain of METTL3/METTL14 (Q9HCE5 whole entry partner, species assumed): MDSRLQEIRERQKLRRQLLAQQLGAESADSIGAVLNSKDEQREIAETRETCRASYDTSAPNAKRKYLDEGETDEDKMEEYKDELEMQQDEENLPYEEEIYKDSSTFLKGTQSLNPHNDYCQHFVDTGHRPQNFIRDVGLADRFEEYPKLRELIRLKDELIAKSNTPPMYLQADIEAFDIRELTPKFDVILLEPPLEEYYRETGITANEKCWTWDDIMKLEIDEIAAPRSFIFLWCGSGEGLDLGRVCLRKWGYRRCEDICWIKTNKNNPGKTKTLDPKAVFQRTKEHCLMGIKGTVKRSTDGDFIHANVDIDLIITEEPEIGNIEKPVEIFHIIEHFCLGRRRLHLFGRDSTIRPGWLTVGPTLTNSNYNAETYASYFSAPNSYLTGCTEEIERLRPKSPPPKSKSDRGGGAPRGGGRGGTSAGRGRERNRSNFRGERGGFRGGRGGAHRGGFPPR
Chain of PRMT5-MEP50 (O14744 whole entry): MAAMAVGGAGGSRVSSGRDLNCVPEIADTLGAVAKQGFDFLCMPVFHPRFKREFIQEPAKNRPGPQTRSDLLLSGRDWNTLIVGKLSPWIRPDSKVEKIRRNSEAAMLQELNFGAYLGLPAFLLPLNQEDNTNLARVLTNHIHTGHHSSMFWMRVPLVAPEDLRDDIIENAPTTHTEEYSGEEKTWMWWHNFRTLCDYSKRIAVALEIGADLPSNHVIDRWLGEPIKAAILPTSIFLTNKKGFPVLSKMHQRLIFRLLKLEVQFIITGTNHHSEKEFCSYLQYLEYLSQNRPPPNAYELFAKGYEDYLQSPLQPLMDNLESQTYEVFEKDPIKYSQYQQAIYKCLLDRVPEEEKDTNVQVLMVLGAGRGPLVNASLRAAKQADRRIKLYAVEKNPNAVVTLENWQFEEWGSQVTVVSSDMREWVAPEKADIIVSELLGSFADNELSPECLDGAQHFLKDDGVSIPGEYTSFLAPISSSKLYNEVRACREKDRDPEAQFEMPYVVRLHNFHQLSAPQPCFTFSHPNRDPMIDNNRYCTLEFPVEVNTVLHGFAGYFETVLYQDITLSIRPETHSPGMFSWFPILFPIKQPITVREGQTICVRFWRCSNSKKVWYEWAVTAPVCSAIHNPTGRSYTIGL
Chain of PRMT5-MEP50 (Q9BQA1 whole entry partner): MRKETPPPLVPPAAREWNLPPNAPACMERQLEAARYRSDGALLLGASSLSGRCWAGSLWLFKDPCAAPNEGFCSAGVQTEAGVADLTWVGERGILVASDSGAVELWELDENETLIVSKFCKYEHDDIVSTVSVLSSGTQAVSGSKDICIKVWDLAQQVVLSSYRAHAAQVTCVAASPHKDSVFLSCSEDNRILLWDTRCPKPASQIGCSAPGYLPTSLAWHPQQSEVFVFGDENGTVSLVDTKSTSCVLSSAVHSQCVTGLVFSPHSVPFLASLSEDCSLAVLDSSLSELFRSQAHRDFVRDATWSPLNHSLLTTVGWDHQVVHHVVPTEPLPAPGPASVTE
Chain of METTL1/WDR4 (Q9UBP6 whole entry, species assumed): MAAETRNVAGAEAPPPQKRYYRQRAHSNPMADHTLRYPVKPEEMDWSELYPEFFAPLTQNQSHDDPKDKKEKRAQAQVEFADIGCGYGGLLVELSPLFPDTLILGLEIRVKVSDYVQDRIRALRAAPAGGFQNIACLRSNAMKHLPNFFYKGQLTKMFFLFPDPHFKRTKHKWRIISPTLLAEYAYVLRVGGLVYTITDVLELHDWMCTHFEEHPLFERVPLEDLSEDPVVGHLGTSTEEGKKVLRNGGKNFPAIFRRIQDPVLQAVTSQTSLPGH
Chain of METTL1/WDR4 (P57081 whole entry partner, species assumed): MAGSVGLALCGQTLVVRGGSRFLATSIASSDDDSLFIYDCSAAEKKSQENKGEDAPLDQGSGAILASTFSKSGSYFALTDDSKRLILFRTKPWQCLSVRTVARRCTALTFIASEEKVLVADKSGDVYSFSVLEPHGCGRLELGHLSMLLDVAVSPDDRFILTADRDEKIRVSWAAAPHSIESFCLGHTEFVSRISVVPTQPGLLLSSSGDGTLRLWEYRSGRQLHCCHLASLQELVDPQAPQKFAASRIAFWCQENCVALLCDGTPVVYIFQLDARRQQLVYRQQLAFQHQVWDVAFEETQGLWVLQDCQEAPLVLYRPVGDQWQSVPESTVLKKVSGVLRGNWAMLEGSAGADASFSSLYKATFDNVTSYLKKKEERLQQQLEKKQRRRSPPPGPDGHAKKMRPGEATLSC

Row | SMILES | IC50 [1, 7] [nM] | IC50 [2] [nM] | IC50 [3] [nM] | IC50 [4] [nM] | IC50 [5, 8] [nM] | IC50 ([6]; MOLM-13, 96 h) [nM] | IC50 [4, 9] [nM] | IC50 ([1]; read-out: PRMT5 IC50, PRMT5 biochemical assay) [nM] | IC50 ([5]; read-out: METTL3 IC50, METTL3 biochemical assay) [nM] | IC50 [6] [nM] | IC50 [1] [nM] | IC50 [5] [nM] | IC50 ([4]; METTL1 biochemical assay, read-out: METTL1 IC50) [nM]
1 | CNc1ccc2ccc(OC[C@H]3O[C@@H](n4cc(C5CCCC5)c5c(N)ncnc54)C[C@@H]3O)cc2n1 [I-30, (2R,3S,5R)-5-(4-amino-5-cyclopentyl-7H-pyrrolo[2,3-d]pyrimidin-7-yl)-2-(((2-(methylamino)quinolin-7-yl)oxy)methyl)tetrahydrofuran-3-ol] | > 1000 | 1000 to 10000 | 1000 to 10000 | > 1000 | < 10 | < 1000 |  |  |  |  |  |  | 
2 | CN(C)c1ccc2ccc(OC[C@H]3O[C@@H](n4cc(C5CCCC5)c5c(N)ncnc54)[C@H](O)[C@@H]3O)cc2n1 [I-42] | 10 to 100 | 1000 to 10000 | 1000 to 10000 |  | < 10 | 1000 to 10000 | > 1000 |  |  |  |  |  | 
3 | CNc1ccc2ccc(OC[C@H]3O[C@@H](n4cc(Cl)c5c(N)ncnc54)[C@@H](F)[C@@H]3O)cc2n1 [I-45, (2R,3R,4S,5R)-5-(4-amino-5-chloro-7H-pyrrolo[2,3-d]pyrimidin-7-yl)-4-fluoro-2-(((2-(methylamino)quinolin-7-yl)oxy)methyl)tetrahydrofuran-3-ol] | 10 to 100 | 1000 to 10000 | 1000 to 10000 | > 1000 | < 10 | 1000 to 10000 |  |  |  |  |  |  | 
4 | CNc1ccc2ccc(OC[C@H]3O[C@@H](n4cc(Br)c5c(N)ncnc54)[C@@H](F)[C@@H]3O)cc2n1 [I-46] | 10 to 100 | 1000 to 10000 | 1000 to 10000 |  | < 10 | < 1000 | > 1000 |  |  |  |  |  | 
5 | CNc1ccc2ccc(OC[C@H]3O[C@@H](n4cc(Cl)c5c(N)ncnc54)C[C@@H]3O)cc2n1 [I-48] | 100 to 1000 | 1000 to 10000 | > 10000 |  | < 10 | 1000 to 10000 | > 1000 |  |  |  |  |  | 
6 | CNc1ccc2ccc(CC[C@H]3C[C@@H](n4cc(C5CCCC5)c5c(N)ncnc54)[C@H](O)[C@@H]3O)cc2n1 [I-55] | < 10 | 1000 to 10000 | 1000 to 10000 |  | < 10 | < 1000 | > 1000 |  |  |  |  |  | 
7 | CNc1ccc2ccc(CC[C@H]3C[C@@H](n4cc(C5CCCCC5)c5c(N)ncnc54)[C@H](O)[C@@H]3O)cc2n1 [I-59] | < 10 | 1000 to 10000 | 1000 to 10000 |  | < 10 | < 1000 | > 1000 |  |  |  |  |  | 
8 | Nc1ncnc2c1ccn2[C@@H]1O[C@H](COc2ccc3ccc(N4CCCC4)nc3c2)[C@@H](O)[C@H]1O [I-75] | 10 to 100 | 1000 to 10000 | > 10000 |  | 10 to 100 |  | > 1000 |  |  |  |  |  | 
9 | CNc1ccc2ccc(OC[C@H]3O[C@@H](n4cc(-c5ncco5)c5c(N)ncnc54)[C@@H](F)[C@@H]3O)cc2n1 [I-150] |  | < 1000 | < 1000 |  |  |  |  | 10 to 100 | < 10 | < 1000 |  |  | 
10 | CNc1ccc2ccc(OC[C@H]3O[C@@H](n4cc([C@H]5CCCO5)c5c(N)ncnc54)[C@@H](F)[C@@H]3O)cc2n1 [I-151] | 100 to 1000 | 1000 to 10000 | 1000 to 10000 |  | < 10 | < 1000 |  |  |  |  |  |  | 
11 | CNc1ccc2ccc(OC[C@H]3O[C@@H](n4cc([C@@H]5CCCO5)c5c(N)ncnc54)[C@@H](F)[C@@H]3O)cc2n1 [I-152] | > 1000 | < 1000 | 1000 to 10000 |  | < 10 | < 1000 |  |  |  |  |  |  | 
12 | Nc1ncnc2c1c([C@@H]1CCCO1)cn2[C@@H]1O[C@H](COc2ccc3ccc(N4CCC4)nc3c2)[C@@H](O)[C@@H]1F [I-158] |  | < 1000 | 1000 to 10000 |  | < 10 | < 1000 |  |  |  |  |  |  | 
13 | Cn1ccc(-c2cn([C@H]3C[C@H](O)[C@@H](COc4ccc5ccc(N6CCC6)nc5c4)O3)c3ncnc(N)c23)n1 [I-164] |  | < 1000 | 1000 to 10000 |  |  |  |  |  |  | < 1000 | > 1000 | < 10 | 
14 | Nc1ncnc2c1c(-n1cccn1)cn2[C@H]1C[C@H](O)[C@@H](COc2ccc3ccc(N4CCC4)nc3c2)O1 [I-170] |  | < 1000 | 1000 to 10000 |  |  |  |  |  |  | 1000 to 10000 | > 1000 | < 10 | 
15 | Cn1ccc(-c2cn([C@@H]3O[C@H](COc4ccc5ccc(N6CC(O)C6)nc5c4)[C@@H](O)[C@@H]3F)c3ncnc(N)c23)n1 [I-171] |  | 1000 to 10000 | 1000 to 10000 |  |  |  |  |  |  | 1000 to 10000 | > 1000 | < 10 | 
16 | Cn1ccc(-c2cn([C@H]3C[C@H](O)[C@@H](COc4ccc5ccc(NC6CC6)nc5c4)O3)c3ncnc(N)c23)n1 [I-179] |  | 1000 to 10000 | 1000 to 10000 |  |  |  |  |  |  | < 1000 | 100 to 1000 | < 10 | 
17 | Cn1ccc(-c2cn([C@@H]3O[C@H](COc4ccc5ccc(NC6CCC6)nc5c4)[C@@H](O)[C@@H]3F)c3ncnc(N)c23)n1 [I-183] |  | < 1000 | < 1000 |  |  |  |  |  |  | < 1000 | > 1000 | < 10 | 
18 | Cc1coc(-c2cn([C@@H]3O[C@H](COc4ccc5ccc(N6CCC6)nc5c4)[C@@H](O)[C@@H]3F)c3ncnc(N)c23)n1 [I-220] |  | < 1000 | 1000 to 10000 |  |  |  |  |  |  | < 1000 | > 1000 | < 10 | 
19 | Nc1ncnc2c1c(-n1cccn1)cn2[C@@H]1O[C@H](COc2ccc3ccc(N4CCC4)nc3c2)[C@@H](O)[C@@H]1F [I-222] |  | < 1000 | < 1000 |  |  |  |  |  |  | < 1000 | > 1000 | < 10 | 
20 | CCc1cc(NC)c2ccc(OC[C@H]3O[C@@H](n4cc(-c5ccn(C)n5)c5c(N)ncnc54)[C@@H](F)[C@@H]3O)cc2n1 [I-232] |  | > 10000 | > 10000 |  |  |  |  |  |  |  | 100 to 1000 | < 10 | > 1000
